Among the data in paper PMC3973950, “Synthesis of 5-arylidine amino-1,3,4-thiadiazol-2-[(N-substituted benzyol)]sulphonamides endowed with potent antioxidants and anticancer activity induces growth inhibition in HEK293, BT474 and NCI-H226 cells” (Medicinal Chemistry Research, 2013) are cytotoxicity and IC50 values, retold here.

The subject of data set [1] is BT474 (breast cancer cell line). The data set is described as follows: In vitro cytotoxicity by MTT assay, BT474. Type of data set: cell-based. The following applies: Homo sapiens, 72 h, read-out: % cytotoxicity (100 − % cell survival) of BT474 cell line; for cytotoxicity at 0.005 µM: BT-474, 0.005 μM; for cytotoxicity at 0.015 µM: BT-474, 0.015 μM; for cytotoxicity at 0.045 µM: BT-474, 0.045 μM; for cytotoxicity at 0.13 µM: BT-474, 0.13 μM; for cytotoxicity at 0.41 µM: BT-474, 0.41 μM; for cytotoxicity at 1.23 µM: BT-474, 1.23 μM; for cytotoxicity at 3.7 µM: BT-474, 3.7 μM; for cytotoxicity at 11.11 µM: BT-474, 11.11 μM; for cytotoxicity at 33.33 µM: BT-474, 33.33 μM; for cytotoxicity at 100 µM: BT-474, 100 μM. The gist of the method: (§1)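 Monolayers seeded at […] (about 10,000 per well) were treated after 24 h with the synthesized compounds and incubated three days. Viability was taken from MTT reduction, with formazan measured at 490 nm.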
(Formazan colour is commonly taken as a measure of viable cells.)

The nature of data set [2]: In vitro cytotoxicity by MTT assay, NCI-H226. Type of data set: cell-based. The following applies: human, NCI-H226 lung cancer cells, 0.015 μM, read-out: % Cytotoxicity (100 − % cell survival) of NCI-H226 cell line. The gist of the method: as §1
Data set [3] relates to NCI-H226 (lung cancer cell line). The data set is described as follows: In vitro cytotoxicity by MTT assay, NCI-H226. Type of data set: cell-based. Particulars: Homo sapiens, 72 h, read-out: % Cytotoxicity (100 − % cell survival) of NCI-H226 cell line; for cytotoxicity at 0.005 µM: NCI-H226, 0.005 μM; for cytotoxicity at 0.045 µM: NCI-H226, 0.045 μM; for cytotoxicity at 0.13 µM: NCI-H226, 0.13 μM; for cytotoxicity at 0.41 µM: NCI-H226, 0.41 μM; for cytotoxicity at 1.23 µM: NCI-H226, 1.23 μM; for cytotoxicity at 3.7 µM: NCI-H226, 3.7 μM; for cytotoxicity at 11.11 µM: NCI-H226, 11.11 μM; for cytotoxicity at 33.33 µM: NCI-H226, 33.33 μM; for cytotoxicity at 100 µM: NCI-H226, 100 μM. The gist of the method:
as §1

A short description of data set [4]: Nitric oxide radical scavenging (sodium nitroprusside, Griess reaction). Type of data set: biochemical. Particulars: Conc. ± SD; standard curcumin; read-out: IC50 inhibitory concentration, Nitric oxide radical. As to the method: Nitric oxide generated from sodium nitroprusside in aqueous solution at physiological pH interacts with oxygen to produce nitrite ions, which were measured by the Griess reaction (Marcocci et al., [1994]; Green et al., [1982]). Scavenger of nitric oxide competes with oxygen leading to reduced production of nitric oxide (Mondal et al., [2006]). The reaction mixture (3 mL) containing sodium nitroprusside (10 mM) in phosphate-buffered saline (PBS) and the compounds in different concentrations (10, 20, 30, 40, 50 and 100 μg) were incubated at 25 °C for 150 min. At every 30-min interval, the incubated sample (0.5 mL) was removed and Griess reagent (1 % sulphanilamide, 0.1 % naphthylethylene diamine dihydrochloride in 2 % H3PO4) (0.5 mL) was added. The absorbance of the chromophore formed was measured at 546 nm. All the analyses were performed in triplicate, and the results were averaged. The percentage inhibition of nitric oxide generated was measured by comparing the absorbance values of control and test.
For orientation: Griess reagent forms a coloured azo dye with nitrite.

The structures appear in SMILES notation.

Consider `O=C(NS(=O)(=O)c1nnc(N=Cc2ccc(O)cc2)s1)c1ccccc1` [Compound 9e, N-({5-[(4-Hydroxybenzylidene)amino]-1,3,4-thiadiazol-2-yl}sulfonyl)benzamide], for which, in data set [1], the cytotoxicity at 0.005 µM is 25.2%, the cytotoxicity at 0.015 µM was 26.4%, the cytotoxicity at 0.045 µM was determined as 27.3% and the cytotoxicity at 0.13 µM was 28.9%. Also, in data set [1], the cytotoxicity at 0.41 µM was determined as 29.9%, the cytotoxicity at 1.23 µM amounted to 31.9%, the cytotoxicity at 3.7 µM worked out at 37.9% and the cytotoxicity at 11.11 µM turned out to be 41.8%. In addition, in data set [1], the cytotoxicity at 33.33 µM was 47.5% and the cytotoxicity at 100 µM is 56.2%. Moreover, in data set [2], the cytotoxicity at 72 h, 0.015 µM was determined as 40.3%. For the same compound, in data set [3], the cytotoxicity at 0.005 µM was determined as 39.1%, the cytotoxicity at 0.045 µM was 41.9%, the cytotoxicity at 0.13 µM amounted to 42.5% and the cytotoxicity at 0.41 µM turned out to be 43.4%. Besides, in data set [3], the cytotoxicity at 1.23 µM is 45.8%, the cytotoxicity at 3.7 µM stood at 47.6%, the cytotoxicity at 11.11 µM stood at 48.2% and the cytotoxicity at 33.33 µM amounted to 49.3%. In addition, in data set [3], the cytotoxicity at 100 µM came to 51.4%. Moreover, the IC50 in data set [4] came out at 155 ± 17.6 µM.

For the compound `O=C(NS(=O)(=O)c1nnc(N=Cc2ccccc2O)s1)c1ccccc1` [Compound 9f, N-({5-[(2-Hydroxybenzylidene)amino]-1,3,4-thiadiazol-2-yl}sulfonyl)benzamide], in data set [1], the cytotoxicity at 0.005 µM turned out to be 30.6%, the cytotoxicity at 0.015 µM came to 32.6%, the cytotoxicity at 0.045 µM came to 33.9% and the cytotoxicity at 0.13 µM amounted to 34.8%. In data set [1], the cytotoxicity at 0.41 µM amounted to 34.8%, the cytotoxicity at 1.23 µM was determined as 35.5%, the cytotoxicity at 3.7 µM worked out at 35.8% and the cytotoxicity at 11.11 µM came out at 36.1%. For the same compound, in data set [1], the cytotoxicity at 33.33 µM came to 38.2% and the cytotoxicity at 100 µM amounted to 38.7%. Besides, the cytotoxicity at 72 h, 0.015 µM in data set [2] was found to be 31.2%. Further, in data set [3], the cytotoxicity at 0.005 µM amounted to 30.3%, the cytotoxicity at 0.045 µM was determined as 32.4%, the cytotoxicity at 0.13 µM is 33.4% and the cytotoxicity at 0.41 µM was determined as 35%. Also, in data set [3], the cytotoxicity at 1.23 µM worked out at 35.7%, the cytotoxicity at 3.7 µM was 36.9%, the cytotoxicity at 11.11 µM was 37.1% and the cytotoxicity at 33.33 µM turned out to be 38.7%. Besides, in data set [3], the cytotoxicity at 100 µM turned out to be 40.4%. The IC50 in data set [4] worked out at 38 ± 11.8 µM.
